Measurements reported in patent publication US7074824B2, “Pharmaceutical compositions containing beta-lapachone, or derivatives or analogs thereof, and methods of using same” (Arqule, Inc., priority 2001, dated 2006).
Converted amounts (≈) assume the structure as drawn. Where two headings read alike, the source gives them in different places.

Assays:
[1] = Solubility in water and in 40% (w/v) HPBCD solution by UV absorbance; assay type: physicochemical
Method: To determine solubilities, test compounds were first dissolved in ethanol to prepare standard solutions with concentrations in the range 2.5–10 mg/ml, then were diluted with to 10 μg/ml with water. UV scans were obtained of the 10 μg/ml standard solutions, and the wavelength of maximum absorbance and the absorbance at the maximum absorbance wavelength were determined. For each test compound 50 μl aliquots of water and of 40% HPBCD were added to individual Eppendorf tubes containing approximately 1 mg of compound each. The tubes were heated in a 30° C. waterbath, vortexed, then centrifuged at 15,000 rpm for 5 min. This step was repeated, then the tubes were cooled to room temperature for 1 hour, then were centrifuged again. The supernatant from each tube was diluted with water into the appropriate absorbance range, and the UV absorbance was measured at the compound's absorbance maximum wavelength. The concentrations of these saturated solutions were then calculated by ratio to the 10 μg/ml ethanolic standard solutions.

A2780 = experiment: MTS growth inhibition assay; assay type: cell-based, human; details: A2780 (sensitive) ovarian, read-out: Growth inhibitory activity (50% effective concentration, IC50)
Method: (§1) A2780 and A2780/CP (ovarian); MCF-7 (breast); HT-29 (colon); BxPC-3 (pancreas); and A549 (lung). The human tumor cell lines (purchased from ATCC, Rockville, Md.) were cultured at 37° C. […] Nova Tech, Grand Island, N.Y.) containing 10% fetal bovine serum (FBS, Nova Tech). Aliquots of cells were seeded into each well of 96-well microtiter plates at a final concentration of 10^4 cells/well and incubated for 24 h prior to exposure to test compounds. […] The MTS assay is a colorimetric assay based upon the ability of viable cells to convert MTS, a novel tetrazolium compound and electron-coupling reagent, to a colored formazan product that is soluble in cell culture medium. The cell concentration is then determined by measuring the absorbance of the formazan product at 490 nm. Growth inhibition, expressed as IC50, is calculated relative to vehicle-treated control cells.

HT-29 = experiment: MTS growth inhibition assay; assay type: cell-based, human; details: HT-29 colon, read-out: Growth inhibitory activity (50% effective concentration, IC50)
Method: as §1

A549 = experiment: MTS growth inhibition assay; assay type: cell-based, human; details: A549 lung, read-out: Growth inhibitory activity (50% effective concentration, IC50)
Method: as §1

A2780CP = experiment: MTS growth inhibition assay; assay type: cell-based, human; details: A2780CP (resistant) ovarian, read-out: Growth inhibitory activity (50% effective concentration, IC50)
Method: as §1

MCF-7 = experiment: MTS growth inhibition assay; assay type: cell-based, human; details: MCF-7 breast, read-out: Growth inhibitory activity (50% effective concentration, IC50)
Method: as §1

BxPC-3 = experiment: MTS growth inhibition assay; assay type: cell-based, human; details: BxPC-3 pancreas, read-out: Growth inhibitory activity (50% effective concentration, IC50)
Method: as §1

[2] = tested on: six human cancer cells lines; experiment: MTS growth inhibition assay, summary over all lines; assay type: cell-based; details: all six tumor cell lines; tested up to 20 μM
Method: A2780 and A2780/CP (ovarian); MCF-7 (breast); HT-29 (colon); BxPC-3 (pancreas); and A549 (lung). The human tumor cell lines (purchased from ATCC, Rockville, Md.) were cultured at 37° C. (5% CO2) in RPMI medium (RPMI; Nova Tech, Grand Island, N.Y.) containing 10% fetal bovine serum (FBS, Nova Tech). Aliquots of cells were seeded into each well of 96-well microtiter plates at a final concentration of 10^4 cells/well and incubated for 24 h prior to exposure to test compounds. […] The MTS assay is a colorimetric assay based upon the ability of viable cells to convert MTS, a novel tetrazolium compound and electron-coupling reagent, to a colored formazan product that is soluble in cell culture medium. The cell concentration is then determined by measuring the absorbance of the formazan product at 490 nm. Growth inhibition, expressed as IC50, is calculated relative to vehicle-treated control cells.

[3] = Exp 1, 4 h treatment + 24 h drug-free
[4] = Exp 2, 4 h treatment + 24 h drug-free
[5] = Exp 3, 4 h treatment + 24 h drug-free
[6] = 40% (w/v) HPBCD, room temperature, saturated solution
[7] = water, room temperature, saturated solution

Solubility Enhancement [1]	Solubility in HPBCD Solution [1] [µg/mL]	Solubility in Water [1] [µg/mL]	IC50 (A2780; [4]) [µM]	IC50 (A2780; [5]) [µM]	IC50 (A2780; Mean ± SE of 3 experiments) [µM]	IC50 (HT-29; Exp 2) [µM]	IC50 (HT-29; Exp 3) [µM]	IC50 (HT-29; Mean ± SE of 3 experiments) [µM]	IC50 (A549; Exp 2) [µM]	IC50 (A549; Exp 3) [µM]	IC50 (A549; Mean ± SE of 3 experiments) [µM]	IC50 (A2780CP; Exp 2) [µM]	IC50 (A2780CP; Exp 3) [µM]	IC50 (A2780CP; Mean ± SE of 3 experiments) [µM]	IC50 (MCF-7; Exp 2) [µM]	IC50 (MCF-7; Exp 3) [µM]	IC50 (MCF-7; Mean ± SE of 3 experiments) [µM]	IC50 (BxPC-3; Exp 2) [µM]	IC50 (BxPC-3; Exp 3) [µM]	SMILES	other results
240 −Fold	5800 (≈ 24.1 mM)	24 (≈ 0.0999 mM)	–	–	–	–	–	–	–	–	–	–	–	–	–	–	–	–	–	CC1(C)C=CC2=C(O1)c1ccccc1C(=O)C2=O [3,4-dehydro-βL]	–
61 −Fold	4100 (≈ 13.2 mM)	67 (≈ 0.216 mM)	–	–	–	–	–	–	–	–	–	–	–	–	–	–	–	–	–	CC(C)=CCC1CC2=C(OC1(C)C)c1ccccc1C(=O)C2=O (centres unmarked) [3-(3-methyl-2-butenyl)-βL]	–
–	–	–	> 20	> 20	> 20	> 20	> 20	> 20	> 20	> 20	> 20	> 20	> 20	> 20	> 20	> 20	> 20	> 20	> 20	CC1(C)CC(=O)C2=C(O1)c1ccccc1C(=O)C2=O [CO-505]	IC50 (A2780; [3]): > 20 µM; IC50 (HT-29; Exp 1): > 20 µM; IC50 (A549; Exp 1): > 20 µM; IC50 (A2780CP; Exp 1): > 20 µM; IC50 (MCF-7; Exp 1): > 20 µM; IC50 (BxPC-3; Exp 1): > 20 µM; IC50 (BxPC-3; Mean ± SE of 3 experiments): > 20 µM; growth inhibitory activity, verbal summary [2]: inactive
–	–	–	4.79	3.23	3.5 ± 0.68	13.4	11.2	14 ± 1.78	12.7	15.3	11.8 ± 2.28	3.85	1.53	2.7 ± 0.67	3.99	3.53	3.39 ± 0.4	8.4	9.22	CC1OC2=C(C(=O)C(=O)c3ccccc32)C1(C)C (centres unmarked) [CO-506]	IC50 (A2780; [3]): 2.47 µM; IC50 (HT-29; Exp 1): 17.3 µM; IC50 (A549; Exp 1): 7.5 µM; IC50 (A2780CP; Exp 1): 2.73 µM; IC50 (MCF-7; Exp 1): 2.64 µM; IC50 (BxPC-3; Exp 1): 5.69 µM; IC50 (BxPC-3; Mean ± SE of 3 experiments): 7.77 ± 1.07 µM; growth inhibitory activity, verbal summary [2]: activity profile similar to CO-501
–	–	–	> 20	> 20	> 20	> 20	> 20	> 20	> 20	> 20	> 20	> 20	> 20	> 20	> 20	> 20	> 20	> 20	> 20	CCCCCC(=O)OC1=CC(=O)C(=O)c2ccccc21 [CO-507, 4-hexanoyloxy-1,2-naphthoquinone]	IC50 (A2780; Homo sapiens, Exp 1, 4 h treatment + 24 h drug-free): > 20 µM; IC50 (HT-29; Homo sapiens, Exp 1): > 20 µM; IC50 (A549; Homo sapiens, Exp 1): > 20 µM; IC50 (A2780CP; Homo sapiens, A2780C/P, Exp 1): > 20 µM; IC50 (MCF-7; Homo sapiens, MCF7, Exp 1): > 20 µM; IC50 (BxPC-3; Mean ± SE of 3 experiments): > 20 µM; IC50 (BxPC-3; Homo sapiens, Exp 1): > 20 µM; growth inhibitory activity, verbal summary [2]: inactive
191 −Fold	6900 (≈ 21.5 mM)	36 (≈ 0.112 mM)	–	–	–	–	–	–	–	–	–	–	–	–	–	–	–	–	–	CC1(C)OC2=C(CC1Br)C(=O)C(=O)c1ccccc12 (centres unmarked) [Compound 3-Bromo-βL, 3-Bromo-βL]	–
10.6 −Fold	14600 (≈ 56.5 mM)	1381 (≈ 5.35 mM)	–	–	–	–	–	–	–	–	–	–	–	–	–	–	–	–	–	CC1(C)OC2=C(CC1O)C(=O)C(=O)c1ccccc12 (centres unmarked) [Compound 3-Hydroxy-βL, 3-Hydroxy-βL]	–
8.7 −Fold	4400 (≈ 17.2 mM)	503 (≈ 1.96 mM)	–	–	–	–	–	–	–	–	–	–	–	–	–	–	–	–	–	CC1(C)CC(=O)C2=C(O1)c1ccccc1C(=O)C2=O [Compound 4-keto-βL, 4-keto-βL]	–
36 −Fold	17000 (≈ 70.2 mM)	476 (≈ 1.96 mM)	–	–	–	–	–	–	–	–	–	–	–	–	–	–	–	–	–	CC1OC2=C(C(=O)C(=O)c3ccccc32)C1(C)C (centres unmarked) [Dunnione]	–

SMILES	Solubility Enhancement [1]	Solubility in HPBCD Solution [1] [µg/mL]	Solubility in Water [1] [µg/mL]	IC50 (A2780; [4]) [µM]	IC50 (A2780; [5]) [µM]	IC50 (A2780; Mean ± SE of 3 experiments) [µM]	IC50 (HT-29; Exp 2) [µM]	IC50 (HT-29; Exp 3) [µM]	IC50 (HT-29; Mean ± SE of 3 experiments) [µM]	IC50 (A549; Exp 2) [µM]	IC50 (A549; Exp 3) [µM]	IC50 (A549; Mean ± SE of 3 experiments) [µM]	IC50 (A2780CP; Exp 2) [µM]	IC50 (A2780CP; Exp 3) [µM]	IC50 (A2780CP; Mean ± SE of 3 experiments) [µM]	IC50 (MCF-7; Exp 2) [µM]	IC50 (MCF-7; Exp 3) [µM]	IC50 (MCF-7; Mean ± SE of 3 experiments) [µM]	IC50 (BxPC-3; Exp 2) [µM]	IC50 (BxPC-3; Exp 3) [µM]	other results
CC1(C)CC(O)C2=C(O1)c1ccccc1C(=O)C2=O (stereo not drawn) [CO-503, 4-hydroxy β-lapachone]	–	–	–	5.29	4.86	4.16 ± 0.92	11	12.1	12.1 ± 0.63	7.63	9.77	10.6 ± 1.98	9.38	14.8	10.5 ± 2.2	19.4	19.3	19.2 ± 0.17	> 20	> 20	IC50 (A2780; [3]): 2.35 µM; IC50 (HT-29; Exp 1): 13.2 µM; IC50 (A549; Exp 1): 14.3 µM; IC50 (A2780CP; Exp 1): 7.42 µM; IC50 (MCF-7; Exp 1): 18.8 µM; IC50 (BxPC-3; Exp 1): > 20 µM; IC50 (BxPC-3; Mean ± SE of 3 experiments): > 20 µM; growth inhibitory activity, verbal summary [2]: significantly less active across all cell lines; Solubility in HPBCD Solution [1, 6]: 3100 µg/mL (≈ 12 mM); Solubility Enhancement ([1]; 40% HPBCD versus water): 8.0 −Fold; Solubility in Water [1, 7]: 381 µg/mL (≈ 1.48 mM)
CC(=O)OC1CC(C)(C)OC2=C1C(=O)C(=O)c1ccccc12 (stereo not drawn) [CO-504, 4-acetoxy β-lapachone]	–	–	–	1.6	1.19	1.54 ± 0.19	6.67	3.98	8.25 ± 3.03	6.87	3.75	9.97 ± 4.74	4	2.56	2.41 ± 0.96	4.78	4.28	3.88 ± 0.67	13.5	2.32	IC50 (A2780; [3]): 1.83 µM; IC50 (HT-29; Exp 1): 14.1 µM; IC50 (A549; Exp 1): 19.3 µM; IC50 (A2780CP; Exp 1): 0.678 µM; IC50 (MCF-7; Exp 1): 2.59 µM; IC50 (BxPC-3; Exp 1): 10.5 µM; IC50 (BxPC-3; Mean ± SE of 3 experiments): 8.74 ± 3.33 µM; growth inhibitory activity, verbal summary [2]: very similar to CO-501 in inhibitory activity; Solubility in HPBCD Solution [1, 6]: 2100 µg/mL (≈ 6.99 mM); Solubility Enhancement ([1]; 40% HPBCD versus water): 7.4 −Fold; Solubility in Water [1, 7]: 284 µg/mL (≈ 0.946 mM)
